In patent US8703799B2, “Non-competitive NMDA receptor antagonists” (priority 2006, dated 2014):
Where “and” joins values, the source holds several entries; their conditions need not be identical. Equal entries are not always repeated.

Legend:
[1] = tested on: MES-induced seizures; test: Maximal electroshock (MES) test for anti-convulsive activity in mice; type: in vivo; set-up: key: (+) means MES test protection occurred at 100 mg/kg delivered i.p. in mice; (−) means that no activity was observed; conditions: i.p., 100 mg/kg
Procedure: The maximal electroshock (MES) test was used to initially screen compounds for anti-convulsive activity in mice.
In the MES test, 50 mA of […] alternating current was delivered to 19-25 g mice for 2 s by a corneal electrode which had been primed with an electrolyte solution containing an anesthetic agent (0.5% tetracaine HCl). Mice were tested at various intervals following doses of 30, 100 or 300 mg/kg of test compound given by i.p. injection in 0.01 ml/g of the aqueous carrier. Animals are considered protected from MES-induced seizures upon abolition of hindlimb tonic extensor component of the seizure (Swinyard et al. 1989; White et al. 1995a; White et al. 1995b).
(§1) For activity, (+) means MES test protection occurred at 100 mg/kg delivered i.p. in mice and (−) means that no activity was observed. For toxicity, (+++) means some animals died at 100 mg/kg and all animals died at 300 mg/kg; (++) means that some toxicity observed at 100 mg/kg and all animals died at 300 mg/kg; and (−) means no toxicity observed at 100 mg/kg and some observed at 300 mg/kg but no animals died at 300 mg/kg.

[2] = tested on: mice; test: Acute toxicity (rotorod minimal motor impairment, overt signs, death) in mice; type: in vivo; set-up: key: (+++) means some animals died at 100 mg/kg and all animals died at 300 mg/kg; (++) means that some toxicity observed at 100 mg/kg and all animals died at 300 mg/kg; (−) means no toxicity observed at 100 mg/kg and some observed at 300 mg/kg but no animals died at 300 mg/kg; conditions: i.p., 100 and 300 mg/kg
Procedure: Acute toxicity was assessed by monitoring animals for overt signs of impaired neurological or muscular function. The rotorod test measures minimal motor impairment (MMI) by placing mice on a rod rotated a 6 rpm. A compound is considered toxic if the mice fall off the rod three times during a 1-min period. Additionally, mice were observed and noted for circular or zigzag gaits, abnormal body posture and spread of the legs, tremors, hyperactivity, lack of exploratory behavior, somnolence, stupor, catalepsy, loss of placing response and change in muscle tone.
as §1

[3] = tested on: electrically-induced convulsions; test: Anti-convulsive ED50 in rats, oral (electrically-induced convulsions); type: in vivo; conditions: delivered orally, amelioration of electrically-induced convulsions
Procedure: Suitable dosages for the compounds and methods disclosed herein range from about 0.05, 0.1, 0.2 or 0.5 mg/kg body weight to about 100 or 200 mg/kg body weight. In certain embodiments, dosages range from about 0.5 to 1 mg/kg body weight to about 100 mg/kg body weight. In other embodiments doses range from about 10 to about 50 mg/kg body weight. Performance of studies to determine an optimal dosage for a particular condition using a particular compound is well within the level of ordinary skill in this field. […] For example, the ED50 of bicyclo,4-F-PCP for alleviation, treatment, or prevention of Alzheimer's and Parkinson's disease would be expected to be on the order of 3 mg/kg.
Compound 4 (Bicyclo,4-F-PCP) was tested in rats using 30 mg/kg delivered orally.

[4] = log P determination; type: physicochemical; conditions: measure of lipophilicity
[5] = pKa determination; type: physicochemical
[6] = Aqueous solubility of fumarate salt; type: physicochemical; conditions: read-out: solubility in aqueous solution
[7] = tested on: NMDA receptors (MK-801 binding site); test: MK-801 (dizocilpine) binding site assay; conditions: rat forebrain membrane, 20 mM HEPES pH 7.5, 25° C., 90 min; FIG. 3
Procedure: NMDA receptors were isolated from rat forebrain membrane (Bmax=830 fmol/mg protein) and incubated with ^3H-labeled MK-801 maleate (15-30 Ci/mmol) in 20 mM HEPES (pH 7.5) buffer at 25° C. for 90 min to yield labeled receptors. MK-801 is a known non-competitive antagonist of NMDA receptor.
Selected concentrations of non-labeled bicyclo,4-F-PCP were incubated with the labeled receptors in 20 mM HEPES (pH 7.5) buffer at 25° C. for 90 min. At the conclusion of the assay, the reaction mixture was filtered immediately on glass filters by vacuum filtration and washed twice with buffer solutions. The radioactivity trapped on the filters was measured, compared with controls, and the ki and IC50 values of bicyclo,4-F-PCP were calculated.

[8] = tested on: NMDA receptors (competitive site, CGP 39653); test: NMDA agonist binding site assay ([3H]CGP 39653); conditions: rat forebrain membrane, 50 mM TRIS-acetate pH 7.4, 0-4° C., 60 min; FIG. 4
Procedure: NMDA receptors were isolated from rat forebrain membrane (Bmax=0.77 pmol/mg tissue) and incubated with ^3H-labeled CGP 39653 (15-30 Ci/mmol) in 50 mM TRIS-acetate (pH 7.4) buffer at 0-4° C. for 60 min to yield labeled receptors. CGP 39653 is a known competitive antagonist of NMDA receptor.
Selected concentrations of non-labeled bicyclo,4-F-PCP were incubated with the labeled receptors in 50 mM TRIS-Acetate (pH 7.4) buffer at 0-4° C. for 60 min. At the conclusion of the assay, the reaction mixture was immediately filtered using glass filters and vacuum filtration, washing twice with buffer solutions. The radioactivity trapped on the filters was measured, compared with controls, and the ki and IC50 values of bicyclo,4-F-PCP calculated.

NC1(c2ccc(F)cc2)CC2CCC1C2 (racemic) [Compound 2, (±)-2-(4-fluorophenyl)-bicyclo[2.2.1]hept-2-ylamine]
Activity (MES test protection) [1]: + | Toxicity [2]: ++

Fc1ccc(C2(N3CCCCC3)CCCCCC2)cc1 [cycloheptyl 4-F piperidine]
Activity (MES test protection) [1]: + | Toxicity [2]: +++

Fc1ccc(C2(N3CCCCC3)CC3CCC2C3)cc1 (racemic) [Compound 4, (±) 1-[2-(4-fluorophenyl)-bicyclo[2.2.1]hept-2-yl]-piperidine]
Activity (MES test protection) [1]: + | Toxicity [2]: − | ED50 ([3]; Rattus norvegicus, po, read-out: ED50 (effective dose)): 28.3 mg/kg | ED50 (effective dose) ([3]; listed as bicyclo,4-F-PCP): 28 mg/kg | logP [4]: 2.07 | pKa [5]: 8.87 | solubility [6]: 36600 µM and 14200 µg/mL | displacement of [3H] MK-801 maleate bound to NMDA receptors [7]: can displace | displacement of CGP 39653 from NMDA receptors [8]: does not displace

NC1(c2ccccc2F)CCCCCC1 [cycloheptyl 2-F amine]
Activity (MES test protection) [1]: + | Toxicity [2]: ++
